Measured values taken from US20140329780A1, “INHIBITOR OF COLONISATION OF MUCOSA” (HELMHOLTZ-ZENTRUM FUER INFEKTIONSFORSCHUNG GMBH, priority 2011, published 2014).
Entries after “also recorded” stand apart in the source; their conditions may differ. Where two headings read alike, the source gives them in different places.

Experiments:
S. aureus N315 [1] = assay: Adhesion test: inhibition of adherence of S. aureus N315 on A549 cells; type: cell-based, Staphylococcus aureus; conditions: for Reduction of adhesion [%]: S. aureus on A549 cells
Protocol: S. aureus (N315) was precultivated on blood agar plates at 37° C. overnight. A colony was picked from the plate with a sterile loop and transferred into 5 ml of BHI medium. The suspension was incubated aerobically at 37° C. for 18 h. After this time the bacterial suspension was centrifugated and the clear medium was decanted off. The pellet was resuspended in PBS and centrifugated again twice. Finally the pellet was resuspended in infection medium at an OD of 1.0 at 600 nm.
Infection medium: Gibco RPMI 1640medium, pH 7.4 (Invitrogen, Carlsbad, USA), containing 1% FBS and 20 mM Hepes.
All media that were used were prewarmed to 37° C. The cell line A-549 was utilized. A-549 cells from a stock that was stored at −196° C. were quickly thawed and suspended in 10 ml of cell culture medium (DMEM (Lonza, Basel, Schweiz) containing 10% FBS (Invitrogen, Carlsbad, USA)). They were cultivated at 37° C. with 10% CO2 in cell culture bottles with a surface of 25 cm^2 under moisture saturation. The next day, the medium was removed and fresh medium was added. The cells were harvested at a confluency state of 80-90% by scrapping them off the bottom of the bottles and pipetting the suspension up and down several times. An aliquot was transferred into a fresh cell culture bottle with fresh medium. After another round of growth to 80-90% confluency the medium was removed and the cell layer was washed with 10 ml of sterile EBSS (Invitrogen). After removing the liquid, 1 ml of a 1% solution of trypsin was evenly distributed over the cell layer. After an incubation for 5 min at 37° C. and a visible detachment of the cell layer, 10 ml of fresh cell culture medium were added, the cells were resuspended and counted in a Neubauer cell counting chamber. A cell density of 100,000 /ml was adjusted and 100 μl of the cell suspension was distributed into the wells of a 96-well microtiter plate. The plate was incubated at 37° C. with 10% CO2 and moisture saturation until the cells had formed an adherent monolayer with 95-100% confluency (4-5 days). The medium was removed by pipetting and 75 μl of fresh infection medium were added to each well, followed by 25 μl of a bacterial suspension (OD600 1.0), together with different concentrations of the test compound. After an incubation time of 60 min at room temperature the medium and non-adherent bacteria were removed with a pipette and the wells were washed three times with PBS.
For fixing the cells a solution of 4% paraformaldehyde in PBS was added and incubated for 20 min at room temperature. After removing the solution and washing the cells with PBS twice, a primary antibody against S. aureus lipoteichoic acid (from rabbit, Acris Antibodies GmbH, Herford) at 1:5000 dilution in 1% BSA-PBS was added (50 μl/Well) and incubated for 45 min at room temperature. During the last 10 min of this incubation an additional 50 μl/well of a solution of DAPI ((4′,6 Diamidino-2-phenylindol)dihydrochloride) in PBS (final concentration 1 μg/ml) was added. After a washing step an incubation with the HRP-conjugated secondary antibody (goat anti rabbit, Dianova) in 1% BSA-PBS for 45 min at room temperature was carried out. For detection of chemiluminescence the BM chemiluminescence ELISA substrate (POD—peroxidase-based secondary detection systems, Roche) was used. Chemiluminescence was determined immediately after addition of the substrate with a chemiluminescence microtiter plate reader.
The detection and quantification of the adherent bacteria can also be carried out with a fluorescence-coupled secondary antibody, for which Alexa Fluor 488 goat anti rabbit at 1:1000 dilution was used. The determination of fluorescence was done after washing with PBS and adding 100 μl PBS per well with a fluorescence microtiter plate reader at 485/530 nm.
Another and very favourable way to quantify the adherent bacteria is the utilization of an automatic microscope.
The procedure is described for the ImageXpress Micro (IXM, Molecular Devices) […]

S. aureus = assay: Influence of ATA on S. aureus already adhering to A549 cells; type: cell-based, Staphylococcus aureus
Protocol: Black bars represent 0.95 μg/ml ATA and white bars represent 2.2 μg/ml. A549 cells were incubated with S. aureus for 1 hour in advance and then ATA was added. Shown are the results for adherence after incubation with ATA for the time period indicated in the graph.
All media that were used were prewarmed to 37° C. The cell line A-549 was utilized. A-549 cells from a stock that was stored at −196° C. were quickly thawed and suspended in 10 ml of cell culture medium (DMEM (Lonza, Basel, Schweiz) containing 10% FBS (Invitrogen, Carlsbad, USA)). They were cultivated at 37° C. with 10% CO2 in cell culture bottles with a surface of 25 cm^2 under moisture saturation. […] After an incubation for 5 min at 37° C. and a visible detachment of the cell layer, 10 ml of fresh cell culture medium were added, the cells were resuspended and counted in a Neubauer cell counting chamber. […]
For fixing the cells a solution of 4% paraformaldehyde in PBS was added and incubated for 20 min at room temperature. […] Chemiluminescence was determined immediately after addition of the substrate with a chemiluminescence microtiter plate reader.
Next, the influence of ATA at two different concentrations corresponding to the IC50 and IC90 values determined in Example 2, on adhering S. aureus cells has been determined. […] The adhesion has been calculated on the basis of 100% adhesion in the absence of ATA.

[2] = test system: different S. aureus isolates (50128509, BH30(04), 50307270, BH30(04) spa, 50046981); assay: Inhibition of adherence of different S. aureus isolates; type: cell-based, Staphylococcus aureus; conditions: MRSA, rifampicin-resistant, tetracycline resistant and methicillin sensitive isolates
Source text: The inhibitory properties of ATA on different S. aureus isolates have been determined using the following strains: 50128509 (MRSA; source: HZI Braunschweig), BH30(04) (MRSA; biofilm positive; SCCmec type II; MLST type 8; CC8; kindly provided by Prof. Jim O'Gara), 50307270 (rifampicin-resistant; source HZI Braunschweig), BH30(04) spa (tetracycline resistant; kindly provided by Prof. Jim O'Gara), 50046981 (methicllin sensitive; source: HZI Braunschweig).
Adherence has been determined as described above.

S. aureus N315 [3] = assay: Inhibition of adherence of S. aureus N315 on human primary nasal epithelial cells; type: cell-based, Staphylococcus aureus; conditions: 1 μg/ml ATA
Protocol: The experiments with the human nasal primary cells (HNEPC, Provitro GmbH, Berlin) were used as described for the A-549 cells and used for up to four passages (corresponding to approx. four weeks). For the HNEPC, Airway epithelial cell growth medium (Provitro GmbH, Berlin) was used.
Following the general procedure as described above, the properties of ATA on inhibiting adhesion of S. aureus N315 on human primary epithelial cells was investigated. ATA was added at different concentrations to the culture and adherence was determined as described before. Already a concentration of 1 μg/ml ATA is sufficient to reduce the adherence of S. aureus to about 45%.

MRSA strain N315 = assay: Anti-bacterial activity / growth curves of MRSA strain N315; type: cell-based, Staphylococcus aureus
Source text: That is, it has been recognized that ATA is able to inhibit adherence of bacteria, like S. aureus, including MRSA strains while not showing an anti-bacterial activity.

host cells = assay: Effects on host cells; type: cell-based
[4] = Staphylococcus aureus, N315, A549
[5] = adhesion of S. aureus N315 on A549 cells

Compound | Reduction of adhesion [%] (S. aureus N315 [1]; 100 μM) | IC50 (S. aureus N315 [1]; [4]) [µg/mL] | IC90 (S. aureus N315 [1]; [4]) [µg/mL] | IC10 (S. aureus N315 [1]; [5]) | Reduction of adhesion [%] (S. aureus N315 [1]; ≦50 μM) | percentage of adherence of S. aureus compared to the control with no ATA (S. aureus; 2.2 μg/ml ATA added after 1 hour pre-incubation of A549 cells with S. aureus, after 3 hours) | eradication of S. aureus after adherence to cells (S. aureus; ATA at IC50 and IC90 concentrations added after 1 hour adherence to A549 cells) | inhibitory activity on adherence of different S. aureus strains [2] | adherence of S. aureus (S. aureus N315 [3]) | anti-bacterial effect (growth curves of MRSA strain N315) (MRSA strain N315; 40 ug/ml, FIG. 6) | influence on growth of the MRSA strain (MRSA strain N315; 48 μg/ml, FIG. 6) | anti-bacterial activity (MRSA strain N315; concentration up to 100 μg/ml) | effects on host cells (host cells) | IC50 (S. aureus N315 [1]; adhesion of S. aureus N315 on A549 cells, read-out: IC50) [µM] | IC90 (S. aureus N315 [1]; adhesion of S. aureus N315 on A549 cells, read-out: IC90) [µM]
O=C(O)C1=CC(=C(c2ccc(O)c(C(=O)O)c2)c2ccc(O)c(C(=O)O)c2)C=CC1=O [ATA, aurintricarboxylic acid] | >90 | 0.95 | ~2.2 | ~0.45 µg/mL | >90 | below 40% | potent in eradicating S. aureus after adherence to cells | effective on different types of S. aureus strains | about 45% | does not have an anti-bacterial effect | does not significantly influence growth | no anti-bacterial activity is present; also recorded: does not show anti-bacterial activity | no remarkable effects have been observed on host cells | – | –
Cc1cc(=O)c2c(O)c3c(O)cc(O)c4c5c(O)cc(O)c6c(O)c7c(=O)cc(CO)c8c1c2c(c34)c(c65)c78 [pseudohypericine] | >90 | – | – | 20 µM | 50 | – | – | – | – | – | – | – | – | 51 | 80
